According to PMC7066176, “Crystal structure of a lipin/Pah phosphatidic acid phosphatase” (Nature Communications, 2020):

Molecular target: T1, Tt Pah2 (Tetrahymena thermophila, UniProt I7MFJ3)
T1 construct: gene TTHERM_00215970; residues 1-321 (lacks 14 C-terminal residues of 335), codon-optimised, E. coli; ppSUMO His-SUMO tag cleaved by ULP-1, or pET28 N-terminal His tag kept
T1 sequence (I7MFJ3 1-321): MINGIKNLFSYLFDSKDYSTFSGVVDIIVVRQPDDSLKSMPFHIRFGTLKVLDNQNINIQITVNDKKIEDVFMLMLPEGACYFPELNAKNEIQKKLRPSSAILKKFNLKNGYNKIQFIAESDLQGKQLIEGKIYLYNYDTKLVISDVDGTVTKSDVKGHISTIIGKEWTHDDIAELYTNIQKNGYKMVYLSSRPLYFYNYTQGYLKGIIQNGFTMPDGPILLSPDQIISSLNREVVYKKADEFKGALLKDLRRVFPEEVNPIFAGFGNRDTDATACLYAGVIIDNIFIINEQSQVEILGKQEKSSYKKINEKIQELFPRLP
Assay: liposome sedimentation, SDS-PAGE
Format: binding
Conditions: 20 mol% POPA liposomes with 40 mol% POPE and POPC, pH 7.5, room temperature; preferential over neutral and POPS liposomes

**Q.** Which “liposome sedimentation, SDS-PAGE” value does the source give for `CCCCCCCC/C=C\CCCCCCCC(=O)O[C@H](COC(=O)CCCCCCCCCCCCCCC)COP(=O)(O)O` [POPA] here?
**A.** Tt Pah2 also preferentially interacted with PA-containing liposomes, in comparison with neutral or anionic PS-enriched
